In US8178506B2, “Oligomeric compounds and compositions for use in modulation of small non-coding RNAs” (Regulus Therapeutics Inc., priority 2003, dated 2012):

System: HeLa cells
Assay: Cell cycle assay in HeLa cells
Type: cell-based, human
Conditions: HeLa cells; for % cells in cell cycle phase: G1 / % cells in cell cycle phase: G2/M / % cells in cell cycle phase: S / % cells in cell cycle phase: aneuploid / % cells in cell cycle phase: subG1: 48 hours after treatment, relative to untreated control (UTC=100)
Protocol: In some embodiments, HeLa cells were plated on collagen-coated 24-well plates at 50,000-60,000 cells per well, and allowed to attach to wells overnight. In some embodiments, HeLa cells were synchronized by double thymidine block (cells were washed three times with PBS, then grown in 10% FBS containing 2 mM thymidine; then 19 hours later, cells were washed three times in PBS, 10% FBS for 9 hours; cells were then incubated in 10% FBS, 2 mM thymidine for 15 hours; then washed three times with PBS, 10% FBS and samples were taken every two hours over a 16 hour period). A portion of each time sample was fixed with ethanol and treated with propidium iodide and subjected to FACs analysis for determination of the percentage of cells in each phase of the cell cycle. […] HeLa cells treated with 10 μM cisplatin or 100 ng/ml nocodazole were used as controls for G1-phase and late G2/M-phases, respectively. From the remaining portion of each of these time samples, total RNA was isolated and used to assess the expression of cell cycle marker mRNAs using the real-time RT-PCR methods and/or used to screen microarrays to assess the expression of miRNAs over the course of the cell cycle. It was observed that several miRNAs are expressed in a cell-cycle-dependent manner. Shown in Table 30 are the mRNA levels of the E2F1 transcription factor and topoisomerase 2A (Top2A), which vary over the course of the cell cycle and can be used for comparison to the experimental groups for the confirmation of cell cycle phase. Data are an average of three trials.
In some embodiments, HeLa cells were also treated with oligomeric compounds targeting miRNAs. […] The medium was removed from the plates. Each well was washed in 250 μl of PBS. […] Control cells received LIPOFECTIN™ only. […] After 24 hours (Table 31) or 48 hours (Table 32), cells were prepared for flow cytometry analysis to generate a cell cycle profile. The cell cycle profile was analyzed with the ModFit program (Verity Software House, Inc., Topsham Me.).
The random-mer ISIS 29848 (SEQ ID NO: 737) was used as a negative control, and ISIS 183891 (SEQ ID NO: 847), targeting kinesin-like 1/Eg5, was included as a positive control. Data are expressed as percentage of cells in each phase relative to the untreated control (UTC); values above 100 are considered to indicate a delay or arrest in that phase of the cell cycle. […] In some cases, the same oligomeric compound was tested in repeated experiments.
In accordance with the present invention, certain oligomeric compounds targeting miRNAs were selected for dose response studies. Using the cell cycle assay described above, the cell cycle profiles of HeLa or A549 cells treated with varying concentrations of oligomeric compounds of the present invention were assessed.
HeLa cells were treated with 25-, 50-, 100- or 150 nM of the oligomeric compounds ISIS
Numbers 327902 (SEQ ID NO: 320) and 328383 (SEQ ID NO: 492), both targeted against mir-192, and ISIS 327905 (SEQ ID NO: 323), targeting mir-205, and ISIS 328403 (SEQ ID NO: 512), targeting mir-106. Cells treated with increasing concentrations of oligomeric compounds were compared to untreated cells, to assess the dose-dependency of the observed delay or arrest. The random-mer ISIS 29848 was used as a negative control. Cells were prepared for flow cytometry 48-hours after oligonucleotide treatment, as described, supra.

[1] = 150 nM oligomeric compound, 24 hours, relative to untreated control (UTC = 100)
[2] = 150 nM, 48 hours, relative to untreated control

Substance | % cells aneuploid [1] [%] | % cells in cell cycle phase G1 [1] [%] | % cells in cell cycle phase G2/M [1] [%] | % cells in cell cycle phase S [1] [%] | % cells in cell cycle phase subG1 [1] [%] | % cells in cell cycle phase: G1 (150 nM oligomeric compound) [%] | % cells in cell cycle phase: G2/M (150 nM oligomeric compound) [%] | % cells in cell cycle phase: S (150 nM oligomeric compound) [%] | % cells in cell cycle phase: aneuploid (150 nM oligomeric compound) [%] | % cells in cell cycle phase: subG1 (150 nM oligomeric compound) [%] | % cells in cell cycle phase G1 [2] [%] | % cells in cell cycle phase G2/M [2] [%] | % cells in cell cycle phase S [2] [%] | % cells in cell cycle phase aneuploid [2] [%] | % cells in cell cycle phase subG1 [2] [%]
338690 (antisense TAGACAAAAACAGACTCTGA; all 2'-MOE, all phosphorothioate, methylation of C not given here) [compound 338690] | 194 | 124 | 123 | 78 | 149 | 91 | 112 | 110 | 190 | 413 | – | – | – | – | –
338713 (antisense ACCTCTCAGGAAGACGGACT; all 2'-MOE, all phosphorothioate, methylation of C not given here) [compound 338713] | 187 | 152 | 101 | 72 | 93 | 95 | 109 | 104 | 194 | 426 | – | – | – | – | –
338741 (antisense GCTTCACAATTAGACCATCC; all 2'-MOE, all phosphorothioate, methylation of C not given here) [compound 338741] | 166 | 141 | 112 | 73 | 157 | 100 | 99 | 101 | 170 | 185 | – | – | – | – | –
338750 (antisense TCCGCGGGGGCGGGGAGGCT; all 2'-MOE, all phosphorothioate, methylation of C not given here) [compound 338750] | 166 | 148 | 97 | 76 | 107 | 99 | 103 | 101 | 190 | 201 | – | – | – | – | –
338756 (antisense TGCCCTGCTCAGAGCCCTAG; all 2'-MOE, all phosphorothioate, methylation of C not given here) [compound 338756] | 166 | 147 | 99 | 75 | 137 | 90 | 100 | 121 | 169 | 311 | – | – | – | – | –
338797 (antisense CTGGGGAGGGGGTTAGCGTC; all 2'-MOE, all phosphorothioate, methylation of C not given here) [compound 338797] | 193 | 101 | 148 | 79 | 197 | 66 | 168 | 124 | 175 | 813 | 104 | 115 | 89 | 125 | 144
338809 (antisense CTGCTCCAGAGCCCGAGTCG; all 2'-MOE, all phosphorothioate, methylation of C not given here) [compound 338809] | 210 | 159 | 69 | 82 | 106 | 86 | 129 | 110 | 157 | 345 | – | – | – | – | –
338826 (antisense CGGATCCTGTTACCTCACCA; all 2'-MOE, all phosphorothioate, methylation of C not given here) [compound 338826] | 138 | 148 | 90 | 79 | 145 | 61 | 182 | 124 | 137 | 696 | – | – | – | – | –
338833 (antisense TCGTGCACCTGAGGAGTCTG; all 2'-MOE, all phosphorothioate, methylation of C not given here) [compound 338833] | 185 | 150 | 142 | 56 | 232 | 44 | 258 | 106 | 154 | 1091 | 87 | 136 | 100 | 136 | 255
341785 (antisense GGAGTGAAGACACGGAGCCAGA; all 2'-MOE, all phosphorothioate, methylation of C not given here) [compound 341785] | 158 | 152 | 53 | 92 | 125 | 82 | 116 | 126 | 166 | 1148 | – | – | – | – | –
341787 (antisense CACAGGTTAAAGGGTCTCAGGGA; all 2'-MOE, all phosphorothioate, methylation of C not given here) [compound 341787] | 165 | 113 | 144 | 75 | 221 | 55 | 197 | 126 | 153 | 707 | 88 | 145 | 96 | 177 | 324
